Reference: the NIST ThermoML archive (doi:10.1021/je700152c)

Assay: molar heat capacity at saturation pressure; xn = mol fraction of the nth substance listed

CCCCn1cc[n+](C)c1.Cc1ccc(S(=O)(=O)[O-])cc1 [1-butyl-3-methylimidazolium tosylate] + O
Details | molar heat capacity [J/K/mol]
246.29 K, Crystal, x1 = 0.3 | 181.97
247.04 K, Crystal, x1 = 0.37 | 195.61
247.05 K, Crystal, x1 = 0.83 | 303.46
247.42 K, Crystal, x1 = 0.3 | 183.98
248.02 K, Metastable crystal, x1 = 0.83 | 322.49
248.32 K, Crystal, x1 = 0.37 | 197.76
248.55 K, Crystal, x1 = 0.3 | 185.99
249.21 K, Crystal, x1 = 0.83 | 306.59
249.59 K, Crystal, x1 = 0.37 | 199.9
249.68 K, Crystal, x1 = 0.3 | 188.1
249.95 K, Metastable crystal, x1 = 0.83 | 325.36
250.8 K, Crystal, x1 = 0.3 | 190.22
250.86 K, Crystal, x1 = 0.37 | 202.18
251.37 K, Crystal, x1 = 0.83 | 309.46
251.87 K, Metastable crystal, x1 = 0.83 | 328.49
251.91 K, Crystal, x1 = 0.3 | 192.75
252.13 K, Crystal, x1 = 0.37 | 204.32
253.03 K, Crystal, x1 = 0.3 | 194.97
253.39 K, Crystal, x1 = 0.37 | 206.85
253.52 K, Crystal, x1 = 0.83 | 312.59
253.79 K, Metastable crystal, x1 = 0.83 | 331.88
254.13 K, Crystal, x1 = 0.3 | 197.41
254.64 K, Crystal, x1 = 0.37 | 209.37
255.24 K, Crystal, x1 = 0.3 | 200.05
255.66 K, Crystal, x1 = 0.83 | 315.71
255.7 K, Metastable crystal, x1 = 0.83 | 335.27
255.89 K, Crystal, x1 = 0.37 | 212.02
256.33 K, Crystal, x1 = 0.3 | 202.69
257.13 K, Crystal, x1 = 0.37 | 214.67
257.42 K, Crystal, x1 = 0.3 | 205.55
257.6 K, Metastable crystal, x1 = 0.83 | 339.18
257.79 K, Crystal, x1 = 0.83 | 318.84
258.37 K, Crystal, x1 = 0.37 | 217.57
258.51 K, Crystal, x1 = 0.3 | 208.4
259.5 K, Metastable crystal, x1 = 0.83 | 342.83
259.59 K, Crystal, x1 = 0.3 | 211.36
259.6 K, Crystal, x1 = 0.37 | 220.6
259.92 K, Crystal, x1 = 0.83 | 322.23
260.66 K, Crystal, x1 = 0.3 | 214.43
260.83 K, Crystal, x1 = 0.37 | 223.76
261.38 K, Metastable crystal, x1 = 0.83 | 346.22
261.73 K, Crystal, x1 = 0.3 | 217.6
262.04 K, Crystal, x1 = 0.83 | 325.62
262.05 K, Crystal, x1 = 0.37 | 227.04
262.8 K, Crystal, x1 = 0.3 | 221.09
263.25 K, Metastable crystal, x1 = 0.83 | 349.61
263.26 K, Crystal, x1 = 0.37 | 230.45
263.85 K, Crystal, x1 = 0.3 | 224.58
264.15 K, Crystal, x1 = 0.83 | 329.27
264.46 K, Crystal, x1 = 0.37 | 233.98
264.9 K, Crystal, x1 = 0.3 | 228.28
265.12 K, Metastable crystal, x1 = 0.83 | 353.26
265.66 K, Crystal, x1 = 0.37 | 238.02
265.94 K, Crystal, x1 = 0.3 | 232.09
266.24 K, Crystal, x1 = 0.83 | 333.18
266.85 K, Crystal, x1 = 0.37 | 241.93
266.97 K, Crystal, x1 = 0.3 | 236
266.99 K, Metastable crystal, x1 = 0.83 | 356.38
268 K, Crystal, x1 = 0.3 | 240.55
268.03 K, Crystal, x1 = 0.37 | 246.09
268.33 K, Crystal, x1 = 0.83 | 337.35
268.85 K, Metastable crystal, x1 = 0.83 | 360.03
269.01 K, Crystal, x1 = 0.3 | 244.56
269.2 K, Crystal, x1 = 0.37 | 250.51
270.02 K, Crystal, x1 = 0.3 | 249.64
270.37 K, Crystal, x1 = 0.37 | 255.18
270.4 K, Crystal, x1 = 0.83 | 342.31
270.7 K, Metastable crystal, x1 = 0.83 | 363.68
271.02 K, Crystal, x1 = 0.3 | 254.4
271.52 K, Crystal, x1 = 0.37 | 259.98
272.01 K, Crystal, x1 = 0.3 | 258.84
272.47 K, Crystal, x1 = 0.83 | 347
272.55 K, Metastable crystal, x1 = 0.83 | 367.59
272.66 K, Crystal, x1 = 0.37 | 265.28
272.99 K, Crystal, x1 = 0.3 | 264.76
273.8 K, Crystal, x1 = 0.37 | 270.96
273.97 K, Crystal, x1 = 0.3 | 269.83
274.39 K, Metastable crystal, x1 = 0.83 | 371.51
274.51 K, Crystal, x1 = 0.83 | 353.78
274.92 K, Crystal, x1 = 0.37 | 276.89
274.93 K, Crystal, x1 = 0.3 | 276.18
275.88 K, Crystal, x1 = 0.3 | 281.68
276.03 K, Crystal, x1 = 0.37 | 283.2
276.22 K, Metastable crystal, x1 = 0.83 | 375.42
276.53 K, Crystal, x1 = 0.83 | 361.08
276.82 K, Crystal, x1 = 0.3 | 288.23
277.13 K, Crystal, x1 = 0.37 | 289.76
277.75 K, Crystal, x1 = 0.3 | 295.53
278.04 K, Metastable crystal, x1 = 0.83 | 379.33
278.22 K, Crystal, x1 = 0.37 | 296.83
278.52 K, Crystal, x1 = 0.83 | 369.42
278.68 K, Crystal, x1 = 0.3 | 301.77
279.29 K, Crystal, x1 = 0.37 | 304.4
279.59 K, Crystal, x1 = 0.3 | 309.59
279.86 K, Metastable crystal, x1 = 0.83 | 383.76
280.35 K, Crystal, x1 = 0.37 | 312.6
280.48 K, Crystal, x1 = 0.3 | 318.37
280.49 K, Crystal, x1 = 0.83 | 379.59
281.36 K, Crystal, x1 = 0.3 | 326.4
281.39 K, Crystal, x1 = 0.37 | 321.44
281.67 K, Metastable crystal, x1 = 0.83 | 388.19
282.23 K, Crystal, x1 = 0.3 | 334.33
282.42 K, Crystal, x1 = 0.37 | 331.41
282.42 K, Crystal, x1 = 0.83 | 391.58
283.09 K, Crystal, x1 = 0.3 | 343.11
283.44 K, Crystal, x1 = 0.37 | 340.37
283.47 K, Metastable crystal, x1 = 0.83 | 393.14
283.93 K, Crystal, x1 = 0.3 | 351.57
284.33 K, Crystal, x1 = 0.83 | 406.44
284.44 K, Crystal, x1 = 0.37 | 351.47
284.76 K, Crystal, x1 = 0.3 | 360.66
285.26 K, Metastable crystal, x1 = 0.83 | 399.66
285.41 K, Crystal, x1 = 0.37 | 362.2
285.58 K, Crystal, x1 = 0.3 | 372.5
286.18 K, Crystal, x1 = 0.83 | 423.91
286.37 K, Crystal, x1 = 0.3 | 390.05
286.38 K, Crystal, x1 = 0.37 | 375.33
287.02 K, Metastable crystal, x1 = 0.83 | 407.22
287.16 K, Crystal, x1 = 0.3 | 386.46
287.33 K, Crystal, x1 = 0.37 | 388.2
287.96 K, Crystal, x1 = 0.3 | 383.82
288 K, Crystal, x1 = 0.83 | 449.2
288.25 K, Crystal, x1 = 0.37 | 402.21
288.77 K, Crystal, x1 = 0.3 | 372.08
288.84 K, Metastable crystal, x1 = 0.83 | 414.26
289.16 K, Crystal, x1 = 0.37 | 417.23
289.6 K, Crystal, x1 = 0.3 | 343.95
289.76 K, Crystal, x1 = 0.83 | 475.27
290.05 K, Crystal, x1 = 0.37 | 434.26
290.49 K, Crystal, x1 = 0.3 | 303.04
290.69 K, Metastable crystal, x1 = 0.83 | 420.52
290.92 K, Crystal, x1 = 0.37 | 452.18
291.45 K, Crystal, x1 = 0.3 | 258.1
291.45 K, Crystal, x1 = 0.83 | 514.89
291.76 K, Crystal, x1 = 0.37 | 471.62
292.49 K, Crystal, x1 = 0.3 | 228.39
292.58 K, Crystal, x1 = 0.37 | 492.69
292.6 K, Metastable crystal, x1 = 0.83 | 426.25
293.09 K, Crystal, x1 = 0.83 | 549.83
293.38 K, Crystal, x1 = 0.37 | 514.4
293.57 K, Crystal, x1 = 0.3 | 214.64
294.16 K, Crystal, x1 = 0.37 | 540.9
294.56 K, Metastable crystal, x1 = 0.83 | 426.77
